Data taken from article PMC6279743, “A small molecule ApoE4-targeted therapeutic candidate that normalizes sirtuin 1 levels and improves cognition in an Alzheimer’s disease mouse model” (Scientific Reports, 2018).
Like-named read-outs stand apart in the source and are kept apart here.

Experiments:
[1] = system: SirT1 levels in N2a-E4 cells; assay: SirT1 AlphaLISA in N2a-E4 cells (HTS, secondary and dose-response testing); type: cell-based, murine; details: for EC50: Mus musculus
Protocol: For HTS we tested a portion of the UCLA compound library (10 plates) including the NIH Clinical Collection library (3 plates). Complete medium (25 µL) was added to each well of 384-well plates, then library compounds were added (250 nL) followed by a suspension of 4 × 10^5 cells/mL murine neuroblastoma N2a cells (25 μL) stably transfected with ApoE4 (N2a-E4). After incubation of the N2a-E4 cells with compounds for 24 hrs at 37 °C and 5% CO2, all but ~6 μL of medium were removed and AlphaLISA Lysis Buffer complemented with HALT protease/phosphatase inhibitor (20 μL, 1X final) was added to each well. To maximize lysis, the plates were frozen at −80 °C. For the AlphaLISA, lysates were thawed and vortexed for 1 min at 3000 rpm.
The AlphaLISA comprises streptavidin donor beads, biotinylated anti-SirT1 N-terminal antibody (19A7AB4), and acceptor beads conjugated to the anti-SirT1 C-terminal antibody (1F3); when the target protein is bound by both antibodies, the beads are in close enough proximity for a transfer of ^1O2 and emission of a detectable signal (Supplementary Fig. S3). For the AlphaLISA, a 384-proxy plate was preloaded with AlphaLISA buffer (2 µL, 1X) with HALT (1X), then cell lysate (2 μL) was transferred to the proxy plate followed by the antibody-mix (2 μL). After incubation at room temperature for 1 hr, the donor bead mixture was added (2 µL) and incubated for an additional 30 min. The plates were then read in an Envision plate reader. All points are one replicate. The standard curve is generated by serial dilution of recombinant SirT1 to assess the linear range of the assay; study samples undergo serial dilution as well. We use A03 as a positive control in the HTS assay. The Z-value, while not ideal, was <1 for the assay (Supplementary Fig. S3).
(§1) Compound in medium (50 µL, 2X) was loaded into a 96-well plate, then 4 × 10^4 cells were added to each well; 24 hrs later the medium was removed and cells lysed. Lysate protein concentration was determined using the Bradford assay according to the manufacturer’s instructions. SirT1 was determined in lysates using the SirT1 AlphaLISA as described above.

N2a-E4 cells = assay: Lysate protein concentration (Bradford assay); type: cell-based, murine; details: A03 at 5 or 50 μM
Protocol: as §1

[2] = system: SirT1 levels in A172-E4 cells; assay: Confirmation assay in A172-E4 cells, SirT1 AlphaLISA; type: cell-based, human; details: 50 μM A03 vs DMSO
Protocol: (§2) Jesus Campagna, Patricia Spilman, Barbara Jagodzinska, Dongsheng Bai, Asa Hatami, Chunni Zhu, Tina Bilousova, Michael Jun, Chris Jean Elias, Johnny Pham, Gregory Cole, Mary Jo LaDu, Michael E. Jung, Dale E. Bredesen, and […]
(§3) Confirmation assay in A172-E4 cells. Befo re transfection, A172 human glioblastoma cells were cultured in Dulbecco’s Modified Eagle Medium (DMEM) supplemented with 10% fetal bovine serum and 1% penicillin/streptomycin in a 37 °C incubator in an atmosphere of 5% CO2 in air. The day of transfection, the media was replaced with Opti-MEM reduced serum medium. Transient transfection with human ApoE4 and ApoE3 constructs in pcDNA3 mammalian expression vectors or empty vector (control) was performed in 96-well plates using a 1:1 mixture of two transfection reagents - Lipofectamine 2000 and siPORT amine - in Opti-MEM as previously described13. After 4 hr incubation with transfection reagents, medium was exchanged for fresh […]
(§4) Cells were incubated with the compound for 60 hrs, then cell culture medium (for sAPPα) and cells (lysates for SirT1) were harvested and levels of sAPPα and SirT1

[3] = system: sAPPα levels in A172-E4 cells; assay: Confirmation assay in A172-E4 cells, sAPPα AlphaLISA; type: cell-based, human; details: 50 μM A03 vs DMSO, cell culture medium
Protocol: as §2, §3, §4

SirT1 mRNA = system: SirT1 mRNA; set-up: method as in PMID 26791201; details: original studies, A172-E4 cells; cited from earlier work
patients = details: cited from earlier work

With `CC(N)C(=O)OC(C)(C)Cc1ccc(Cl)cc1` (stereo not drawn) [A03, alaproclate] the EC50 ([1]; read-out: EC50 for enhancement of SirT1, N2a-E4 cells, dose-response curve, n = 3 at each concentration) was 2.3 µM, the EC50 ([1]; N2a-E4 cells, dose-response curve, n = 3 at each concentration, read-out: EC50 for enhancement of SirT1) was 2 µM and the “Dose-response increase in SirT1 in secondary testing” value ([1]; N2a-E4 cells, 1, 5 and 10 μM) was “showed a dose-response”. The “SirT1 increase, racemate vs enantiomers” value ([1]; N2a-E4 cells, 5 and 50 μM, n = 3 wells) was “increase SirT1 in N2a-E4 with high significance”, the “SirT1 level in HTS” value ([1]; N2a-E4 cells, 24 hrs, NIH Clinical Collection screen, A03 5 μM as positive control) was “significantly increased SirT1” and the “SirT1 (normalized to protein)” value ([1]; N2a-E4 cells, A03 at 5 or 50 μM vs DMSO) was “dose-response increase”. For the same molecule, the “SirT1 increase vs DMSO control at 1 μM” value ([1]; secondary assay, N2a-E4 cells, 1 μM, n = 6 wells) was “modest but significant increases”, the “SirT1 increase vs DMSO control at 5 and 10 μM” value ([1]; secondary assay, N2a-E4 cells, 5 and 10 μM, n = 6 wells) was “increased SirT1” and the “Protein concentration in cell lysates (viability surrogate)” value (N2a-E4 cells) was “did not increase protein concentration”. The “SirT1 levels in ApoE4-transfected A172 cells” value [2] was “significantly increased SirT1 levels”, the “sAPPα levels in A172-E4 cells” value [3] was “significant increase” and the “SirT1 mRNA” value (SirT1 mRNA) was “increase in SirT1 mRNA”. For the same molecule, the “Liver function in Phase 1 trial for depression” value (patients; human) was “some liver function changes were seen”, the “Toxicity in second clinical study” value (patients; human) was “no toxicity up to 200 mg BID” and the “Global scores in moderate to advanced AD patients” value (patients; small clinical studies) was “some improvements in global scores”.
